“And” between values parts separate entries of the source, which are not always exact repeats. Equal values may be shown once.
Legend:
[1] = Mass balance and excretion study, single oral dose 100 mg/kg; format: in vivo, Sprague-Dawley rats
Protocol: Four male rats were administered a single oral dose of [^14C]PPI-1011 at 100 mg/kg (200 μCi/kg). Feces, urine, and the cage rinse samples were collected at pre-determined times up to 168 h post-dose (HPD). The expired air was collected using a carbon dioxide trapping apparatus equipped with airflow apparatus. Expired [^14C]CO2 was collected for two of the four dosed animals for 24 h after the dose in a solution of ethanolamine:2-methoxyethanol (1:3, v/v) in two traps. Rats were sacrificed by overdose of CO2 and each cage was rinsed with 25% ethanol in water (>50 ml) at the end of the study. The cage rinse sample and the expired [^14C]CO2 was stored at 4°C.
Diluted dose solutions, plasma, urine, and cage rinse were analyzed in duplicate by LSC, as described above. The expired CO2 was analyzed the same day it was collected by mixing a 1 ml aliquot of the carbon dioxide absorbents with 5 ml of Hionic-Fluor for radioactivity concentrations with LSC. Feces samples were homogenized in 5-fold volume of purified water then duplicate fecal homogenate aliquots were transferred to Combusto Cones and combusted with a Sample Oxidizer (Model A307, Perkin Elmer) equipped with an Oximate 80 Robotic Automatic Samples. The [^14C]CO2 generated by the combustion was also collected in Carbo Sorb E and radioactivity was determined with PermaFluor as the scintillant using a Tri-Carb LSC.

[2] = Dose formulation stability by HPLC with radioactivity detection; format: physicochemical; conditions: 20 mg/ml in LCO with 0.1% 1-thioglycerol
Protocol: PPI-1011 and [^14C]PPI-1011 were formulated together in liquid coconut oil (LCO) containing 0.1% 1-thioglycerol for oral dosing. For single dose studies, PPI-1011 and [^14C]PPI-1011 were combined to generate an oral formulation with a concentration of 20 mg/ml and 40 μCi/ml on the day before dosing and stored at 4°C. Formulation for the repeat dosing QWBA experiment was made on the day prior to the first dose with a concentration of 20 mg/ml and 20 μCi/ml. This formulation was then aliquoted and stored frozen at −20°C until the day of use. Concentration and radiochemical purity of all formulations were confirmed by HPLC prior to dosing.
Radiochemical concentrations and purity of the oral dose formulations were all confirmed to be >97% by HPLC with radioactivity detection. The mean radioactivity concentrations of dose formulations were 21.24 μCi/g. Representative radiochromatograms obtained from analysis of dose formulation of [^14C]PPI-1011 are shown in Supplementary Figure S1. The retention time of [^14C]PPI-1011 was approximately 12 min. The stability of the dose formulation at 20 mg/ml concentration was examined at 4°C and at −20°C for up to 24 h. The results are shown in Supplementary Figure S2. […]

CC/C=C\C/C=C\C/C=C\C/C=C\C/C=C\C/C=C\CCC(=O)O[C@H](CO[14CH2]CCCCCCCCCCCCCCC)COC(=O)CCCCC1CCSS1 (stereo partly shown) [[^14C]PPI-1011]
Dose recovered in feces ([1]; 168 h collection period, single oral 100 mg/kg): 42.51 ± 7.16% | Total dose excreted in urine and feces ([1]; between 24 and 48 h): approximately 6% | Additional excretion in urine and feces ([1]; between 48 and 168 h): < 3% | Compound-associated radioactivity absorbed by the body ([1]; single oral 100 mg/kg): over 50% | Dose found in urine ([1]; up to day seven, single oral 100 mg/kg, 100 mg/kg): 2.40 ± 0.59% and < 2.5% | Dosed radioactivity recovered in urine and feces including cage rinses ([1]; within 168 h collection period, single oral 100 mg/kg): 45.10 ± 7.34% | Compound-associated radioactivity excreted in the feces ([1]; within the first 24 h): approximately 40% | Compound-associated radioactivity excreted in the urine ([1]; within the first 24 h): ~2.5% | Radioactive purity of dose formulation after storage (stability) ([2]; up to 24 h at 4°C): 96.5% | Radioactive purity of dose formulation after storage (stability) ([2]; up to 24 h at −20°C): 97.2%
